tested on: not given; experiment: not given; details: not given

melting point | SMILES
227 to 229 °C | Cc1ccc(NC(=O)Nc2cccc(CC3=NCCN3)c2)cc1Cl.Cl
193 to 197 °C | COc1ccc(NC(=O)Nc2ccc(C)c(Cl)c2)cc1N1CCN(CC2COc3ccccc3O2)CC1.Cl (centres unmarked)
194 to 196 °C | Cl.Cl.O=C(Nc1cccc(N2CCN(CC3COc4ccccc4O3)CC2)c1)N1CCc2c1ccc1ccccc21 (centres unmarked)
202 to 204 °C | Cl.Cl.O=C(Nc1cccc(N2CCN(CC3COc4ccccc4O3)CC2)c1)N1CCc2cc(F)c(Cl)cc21 (centres unmarked)
234 to 236 °C | COc1ccc(NC(=O)Nc2ccc(C)c(C)c2)cc1N1CCN(CC2COc3ccccc3O2)CC1.Cl.Cl (centres unmarked)
120 to 130 °C | COc1ccc(NC(=O)Nc2ccc(F)c(Cl)c2)cc1N1CCN(CC2COc3ccccc3O2)CC1.Cl (centres unmarked)
228 to 230 °C | Cc1ccc(NC(=O)Nc2cccc(N3CCN(CC4COc5ccccc5O4)CC3)c2)cc1C.Cl (centres unmarked)
132 to 136 °C | Cl.O=C(Nc1cccc(N2CCN(CC3COc4ccccc4O3)CC2)c1)Nc1ccc(F)c(Cl)c1 (centres unmarked)
174 to 176 °C | Cc1cc2c(cc1Cl)N(C(=O)Nc1ccc(N3CCN(CC4COc5ccccc5O4)CC3)cc1)CC2.Cl.Cl (centres unmarked)
235 to 237 °C | Cc1ccc(NC(=O)Nc2ccc3c(c2)CC(c2c[nH]cn2)C3)cc1Cl.Cl (centres unmarked)
100 to 102 °C | Cc1ccc(NC(=O)Nc2cccc(C(C)C3=NCCN3)c2)cc1Cl.Cl (centres unmarked)
243 to 245 °C | CSc1ccc(NC(=O)Nc2ccc3c(c2)CC(c2c[nH]cn2)C3)cc1.Cl (centres unmarked)
232 to 234 °C | Cc1ccc(NC(=O)Nc2ccc3c(c2)CC(c2c[nH]cn2)C3)cc1C.Cl (centres unmarked)
237 to 239 °C | Cc1ccc(NC(=O)Nc2ccc3c(c2)CN(C2=NCCN2)CC3)cc1Cl.Cl
237 to 239 °C | Cc1ccc(NC(=O)Nc2cccc(CCc3c[nH]cn3)c2)cc1Cl.Cl
212 to 214 °C | Cc1ccc(NC(=O)Nc2cccc(CCC3=NCCN3)c2)cc1Cl.Cl
255 to 257 °C | Cc1ccc(NC(=O)Nc2ccc3c(c2)C(c2c[nH]cn2)CCC3)cc1Cl.Cl (centres unmarked)
206 to 208 °C | Cc1ccc(NC(=O)Nc2ccc3c(c2)CC(c2c[nH]cn2)CC3)cc1Cl.Cl (centres unmarked)
> 260 °C | Cc1ccc(NC(=O)Nc2ccc3c(c2)C(c2c[nH]cn2)CCO3)cc1Cl.Cl (centres unmarked)
232 to 233 °C | Cc1ccc(NC(=O)Nc2cccc(C(C)(C)C3=NCCN3)c2)cc1Cl.Cl
206 to 208 °C | COc1ccc(NC(=O)Nc2ccc(C)c(Cl)c2)cc1N1CCN(C)CC1.Cl
229 to 231 °C | Cc1ccc(NC(=O)Nc2ccc(C)c(N3CCN(C)CC3)c2)cc1Cl.Cl
252 to 254 °C | Cc1ccc(NC(=O)Nc2ccc(C)c(NC3=NCCN3)c2)cc1Cl.Cl
180 to 185 °C | Cc1ccc(NC(=O)Nc2cccc(NC3=NCCN3)c2)cc1Cl.Cl
255 to 257 °C | Cc1ccc(NC(=O)Nc2ccc(Cl)c(NC3=NCCN3)c2)cc1Cl.Cl

SMILES | melting point
Cc1ccc(NC(=O)Nc2cccc(N3CCN(CC4COc5ccccc5O4)CC3)c2)cc1Cl.Cl (centres unmarked) [Example 6, N-(3-Chloro-4-methylphenyl)-N′-{3-[4-(2,3-dihydro-1,4-benzodioxin-2-ylmethyl)-1-piperazinyl]phenyl}urea hydrochloride] | 180 to 185 °C

tested on: Male NMRI mice; experiment: Marble-burying test in the mouse; format: in vivo; details: 0.5 h, 24 marbles, 30 minutes' free exploration, read-out: effective dose 50 (ED50), inhibition of marble-burying
From the text: This test allows evaluation of the capacity of pharmacological agents to inhibit the spontaneous marble-burying behaviour in mice, the inhibition being predictive of antidepressant and/or anti-impulsive action. Male NMRI mice weighing from 20 to 25 g on the day of the experiment are placed individually in Macrolon boxes containing 5 cm of sawdust and covered with a perforated plexiglass plate. Twenty four “tiger's eye” glass marbles are evenly distributed on the sawdust at the periphery of the box. At the end of 30 minutes' free exploration, the animals are removed from the box and the number of buried marbles is counted.

SMILES | ED50
Cc1ccc(NC(=O)Nc2cccc(N3CCN(CC4COc5ccccc5O4)CC3)c2)cc1Cl.Cl (centres unmarked) [Example 6, N-(3-Chloro-4-methylphenyl)-N′-{3-[4-(2,3-dihydro-1,4-benzodioxin-2-ylmethyl)-1-piperazinyl]phenyl}urea hydrochloride] | 0.4 mg/kg

target: T1, 5-HT2c receptors (Rattus norvegicus, UniProt P08909); experiment: Penile erection test in the rat (erections induced by RO 60-0175); format: in vivo; details: male Wistar rats; RO 60-0175 1.25 mg/kg s.c. 30 min after test compound; erections counted during 30 minutes
T1 construct: Male Wistar rats weighing from 120 to 140 g on the day of the experiment; from tissue; host or cells: whole animal (male Wistar rat), endogenous receptor
T1 sequence (P08909 33-460): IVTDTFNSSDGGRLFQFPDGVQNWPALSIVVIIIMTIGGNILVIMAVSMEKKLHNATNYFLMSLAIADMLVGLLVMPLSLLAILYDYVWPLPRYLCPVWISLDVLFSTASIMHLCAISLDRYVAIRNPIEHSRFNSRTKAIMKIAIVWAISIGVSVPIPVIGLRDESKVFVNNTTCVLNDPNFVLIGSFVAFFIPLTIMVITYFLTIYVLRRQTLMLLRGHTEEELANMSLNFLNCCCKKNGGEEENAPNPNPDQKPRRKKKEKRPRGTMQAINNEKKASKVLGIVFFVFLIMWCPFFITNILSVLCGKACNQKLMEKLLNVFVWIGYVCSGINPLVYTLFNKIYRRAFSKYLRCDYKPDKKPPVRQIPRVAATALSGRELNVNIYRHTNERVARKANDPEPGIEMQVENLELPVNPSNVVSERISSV
Description: The test allows the evaluation of the capacity of pharmacological agents to inhibit penile erections caused by the administration of a 5-HT2c selective agonist, RO 60-0175.
Male Wistar rats weighing from 120 to 140 g on the day of the experiment are placed individually into plexiglass observation boxes immediately after having been administered the test compound or the carrier. Thirty minutes later, the animals are administered RO 60-0175 (1.25 mg/kg, subcutaneous route) and the number of erections that occur during the 30 minutes that follow is counted.

SMILES | inhibitory dose 50 (ID50), inhibition of penile erections
Cc1ccc(NC(=O)Nc2cccc(N3CCN(CC4COc5ccccc5O4)CC3)c2)cc1Cl.Cl (centres unmarked) [Example 6, N-(3-Chloro-4-methylphenyl)-N′-{3-[4-(2,3-dihydro-1,4-benzodioxin-2-ylmethyl)-1-piperazinyl]phenyl}urea hydrochloride] | 0.7 mg/kg

tested on: male CD-1 mice; experiment: Test in the mouse of aggressiveness induced by isolation; format: in vivo; details: isolated male CD-1 mice; subcutaneous administration; 30 minutes before test; three minutes observation
From the text: The animals used are male CD-1 mice. On arrival, the mice are isolated in individual cages with free access to food and drink. After a period of isolation of one month, pairs of mice that are constant in their aggressiveness are selected by observation of the latent period, the number and the duration of attacks when they are placed in each other's presence. The test takes place once a week. On the day of the test, each mouse of the pair of mice (resident mouse and intruder mouse) is given a subcutaneous injection of carrier (control animals) or of test product (treated animals) in a volume of 10 ml/kg. After 30 minutes, the intruder mouse is introduced into the cage of the resident mouse. The latent period of the first attack and the number and duration of attacks are then measured for a period of three minutes. A product is considered as specifically anti-aggressive when it reduces the number and the duration of attacks at non-sedative doses.

SMILES | inhibitory dose 50 (ID50), number and duration of attacks
Cc1ccc(NC(=O)Nc2cccc(N3CCN(CC4COc5ccccc5O4)CC3)c2)cc1Cl.Cl (centres unmarked) [Example 6, N-(3-Chloro-4-methylphenyl)-N′-{3-[4-(2,3-dihydro-1,4-benzodioxin-2-ylmethyl)-1-piperazinyl]phenyl}urea hydrochloride] | 2.5 mg/kg

Source: US7026357B2, “Diphenylurea compounds” (Les Laboratoires Servier, priority 2000, dated 2006)
